Tested on: Uridine phosphorylase (Mus musculus)
Assay: Relative Vmax for interaction with Urd phosphorylase

Relative Vmax: 5
SMILES: C[C@@]1(F)OC(n2cc(F)c(=O)[nH]c2=O)[C@H](O)[C@@H]1O (stereo partly specified)

From ChEMBL document CHEMBL1124124, “Synthesis and interaction with uridine phosphorylase of 5'-deoxy-4',5-difluorouridine, a new prodrug of 5-fluorouracil” (J Med Chem, 1988)
